The subject of series [1] is avian influenza virus A/FPV/Bratislava/79 (H7N7). Type of series: cell-based, human A549 lung epithelium carcinoma cells.
For series [2] the following is noted: after intravenous application; cited from earlier work.
Series [3] relates to IκBα. Nature of the series: TNFα-induced IκBα degradation (NF-κB activation), Western blot, HEK293 cells. Type of series: cell-based. The conditions noted are these: 1 h pre-incubation, 15 min TNFα.
Series [4] concerns IκBα. The series is described as follows: TNFα-induced IκBα degradation (NF-κB activation), Western blot, A549 cells. The format is cell-based, human. The conditions noted are these: 1 h pre-incubation, 15 min TNFα. A general note: Immunoblotting shows a protein as a band on a membrane.
Series [5] has as its system avian influenza A virus A/FPV/Bratislava/79. More on the design: species or system C57B1/6 mice. The following applies: mouse, in vivo.
For another series, the system named is TRAIL and FasL/CD95L. The format is cell-based, human.
Series [6] deals with avian influenza A virus A/FPV/Bratislava/79. The format is cell-based, human lung epithelium cell line A549.
In another series the test system is 26S proteasome. The conditions noted are these: cited from earlier work.

Results on four molecules are retold here after patent US20090074716A1, “METHOD FOR TREATING INFLUENZA VIRUS INFECTION” (priority 2006, published 2009).

Entries after “also recorded” stand apart in the source; their conditions may differ. Where a SMILES comes first, the peptide text is derived from it. The star is where a group is joined. Cbz = O=C(OCc1ccccc1)*

As to `CC(C)C[C@H](NC(=O)[C@H](Cc1ccccc1)NC(=O)c1cnccn1)B(O)O` [PS341, pyranosyl-phenyl-leucinyl-boric acid], in series [1], the “reduction of the virus titre” value is “over 2 logarithmic levels”. The biological availability entry in series [2] was “biologically available”. Moreover, the “prevention of TNFα-induced IκBα-degradation” value in the series with IκBα [3] (100 nM) and with IκBα [4] (100 nM) was “not in a position to prevent” each time.
As for `CC(C)C[C@@H](C=O)NC(=O)[C@H](CC(C)C)NC(=O)[C@H](CC(C)C)NC(=O)OCc1ccccc1` [MG132, N-carbobenzoxy-L-leucinyl-L-leucinyl-L-leucinal] (Cbz-Leu-Leu-Leu-aldehyde), the “survival rate of infected mice versus untreated controls” value in series [5] is “significantly increased”. Further, in the series on TRAIL and FasL/CD95L, the “virus-induced expression of FasL” value is given as “clearly reduced; also recorded: blocks” and the “virus-induced expression of TRAIL” value is reported as “clearly reduced; also recorded: blocks”. In series [6], the influenza virus replication entry is on record as “blocks” and the “reduction of the virus titre” value was “up to 10 times”.
Turning to `CC(C)c1nc(CN(C)C(=O)N[C@H](C(=O)N[C@@H](Cc2ccccc2)C[C@H](O)[C@H](Cc2ccccc2)NC(=O)OCc2cncs2)C(C)C)cs1` [Ritonavir], the “concentration with unspecific effect on the proteasome” value in the series on 26S proteasome is listed as “approx. 10 micrograms”.
Consider `CC(=O)N[C@@H](CSC(=O)[C@]1([C@@H](O)C(C)C)NC(=O)[C@H](C)[C@@H]1O)C(=O)O` [lactacysteine], for which, in series [1], the “reduction of the virus titre” value was “reduction”. Besides, the “blocking of TNFα-induced IκBα-degradation” value with IκBα [3] (1 μM) and in the series with IκBα [4] (1 μM) was “not effective enough to block” in each case.
